From paper PMC12525580, “Impacts of Tween-20, Glycerol, and Trehalose on Hyaluronidase Activity: Insights from Microscale Thermophoresis and Capillary Electrophoresis” (Molecules, 2025)

Target: T1, hyaluronidase type I-S from bovine testes (BTH; Hyal) (Bos taurus, UniProt Q2YDK3)
T1 construct: gene SPAM1; commercial unlabeled enzyme from bovine testes
T1 sequence (Q2YDK3 36-553): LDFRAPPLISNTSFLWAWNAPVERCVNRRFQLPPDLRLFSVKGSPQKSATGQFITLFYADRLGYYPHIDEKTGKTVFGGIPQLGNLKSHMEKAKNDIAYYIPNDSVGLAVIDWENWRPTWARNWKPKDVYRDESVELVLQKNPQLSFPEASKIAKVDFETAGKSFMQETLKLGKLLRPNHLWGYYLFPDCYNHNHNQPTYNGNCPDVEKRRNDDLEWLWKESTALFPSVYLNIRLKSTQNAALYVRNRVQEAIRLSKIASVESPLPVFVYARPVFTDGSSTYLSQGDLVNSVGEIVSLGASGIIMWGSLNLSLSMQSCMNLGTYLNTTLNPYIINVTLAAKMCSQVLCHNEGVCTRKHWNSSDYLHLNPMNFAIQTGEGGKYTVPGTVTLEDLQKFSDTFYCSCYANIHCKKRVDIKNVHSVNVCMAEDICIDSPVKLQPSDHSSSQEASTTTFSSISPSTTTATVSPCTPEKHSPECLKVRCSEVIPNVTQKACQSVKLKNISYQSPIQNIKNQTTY
Assay: CE-UV enzymatic assay of hyaluronic acid degradation; inhibition at […] without trehalose ([…] with […] trehalose)
Format: biochemical
Settings: read-out: Inhibition at 1 mg/mL-Equation (1) / 0% Trehalose

inhibition at 1000 µg/mL: 25 ± 5%
Compound: O=c1cc(-c2ccc(O)cc2)oc2cc(O[C@@H]3O[C@H](CO)[C@@H](O)[C@H](O)[C@H]3O)cc(O)c12 [apigenin-7-glucoside]
